The experiment deals with T1, Sorbitol dehydrogenase (Homo sapiens, UniProt Q00796).
T1 sequence (Q00796 whole entry): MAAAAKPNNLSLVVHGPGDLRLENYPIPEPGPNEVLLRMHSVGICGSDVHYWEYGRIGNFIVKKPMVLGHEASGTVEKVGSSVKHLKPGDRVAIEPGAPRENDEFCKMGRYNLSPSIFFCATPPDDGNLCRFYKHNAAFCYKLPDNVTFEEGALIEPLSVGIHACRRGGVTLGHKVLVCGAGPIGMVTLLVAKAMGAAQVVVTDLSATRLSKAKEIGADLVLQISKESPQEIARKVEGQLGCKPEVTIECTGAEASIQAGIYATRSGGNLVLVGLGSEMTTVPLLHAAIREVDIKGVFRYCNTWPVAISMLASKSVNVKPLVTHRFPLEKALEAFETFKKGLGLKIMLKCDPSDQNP
The experiment in a line: Concentration required for inhibitory activity against human sorbitol dehydrogenase (SDH).

In general, IC50 refers to the concentration needed to halve the response being measured. Higher therefore signals a need for much substance.

Turning to `CN(C)S(=O)(=O)N1CCN(c2ccnc(CO)n2)CC1`, the IC50 turned out to be 1 µM. This counts as single-digit micromolar.

For the origin of these results see ChEMBL document CHEMBL1133872, “Modelling studies of the active site of human sorbitol dehydrogenase: an approach to structure-based inhibitor design of the enzyme” (Bioorg Med Chem Lett, 2001).
